We go through one substance from article PMC6251916, “CKD-506, a novel HDAC6-selective inhibitor, improves renal outcomes and survival in a mouse model of systemic lupus erythematosus” (Scientific Reports, 2018).

For data set [1], the system named is NZB/W F1 female mice. Briefly: Murine SLE model: kidney histopathology (H&E, PAS, Masson trichrome). In kind it is in vivo, mouse. The conditions noted are these: group CKD10. The source says:
(§1) Survival had been monitored until 42 weeks of age.
Kidneys were harvested from mice at the end of the study (at 43–44 weeks of age). For light microscopy, the tissues were fixed in 10% neutral buffered formalin, embedded in paraffin wax, sectioned at a thickness of 5 μm and stained with H&E (BBC Biochemical, Mount Vernon, WA, USA). Periodic acid/Schiff (PAS stain kit, BBC Biochemical) staining and Masson trichrome (BBC Biochemical) staining were used for the detection of […] and fibrosis, respectively. Inflammatory cell infiltration and mesangial proliferation were scored on a 4-point scale as 0 (none), 1+ (mild), 2+ (moderate), 3+ (moderate to severe) and 4+ (severe).

The test system of data set [2] is NZB/W F1 female mice. Briefly: Murine SLE model: serum immunoglobulin isotyping. In kind it is in vivo, mouse. The conditions noted are these: group CKD50. How it is done:
as §1
Serum immunoglobulin concentrations were determined with mouse IgG1, IgG2A, IgG2B, IgG3, and IgM Isotyping kits and a mouse Mag Isotyping assay base kit (R&D Systems, Minneapolis, MN). Thirty-fold diluted sera were used for analysis of IgM and IgG2B levels, 6000-fold diluted sera were used for analysis of IgG1 and IgG2A levels and 48,000-fold diluted sera were used for analysis of IgG3 level.

On the set-up of data set [3]: method as in EudraCT number: 2016-002816-42. The conditions noted are these: ref EudraCT number: 2016-002816-42; cited from earlier work.
The test system of data set [4] is NZB/W F1 female mice. The data set can be described thus: Murine SLE model: BUN and anti-dsDNA antibody levels. It counts as in vivo, mouse. As for the experimental part: as §1
Blood samples had been collected from mice under isoflurane anesthesia every 4 weeks (at 24, 28, 32, 36, 40 weeks of age and autopsy), and the obtained serum samples had been kept at −70 °C until the analysis.

Consider CKD-506, for which, in the data set on NZB/W F1 female mice [1], the “Masson's trichrome staining of kidneys” value is recorded as “fibrosis”. For the same substance, in the data set with NZB/W F1 female mice [1], the “Periodic acid-Schiff (PAS) staining of kidneys” value was “dilated tubules and casts”. In the data set on NZB/W F1 female mice [1], the “histopathological evaluation of the kidneys (H&E)” value is “Large numbers of inflammatory cell infiltrations and mesangial proliferation”. Also, the “serum levels of IgM vs vehicle” value with NZB/W F1 female mice [2] is “significantly lower”. Also, the “safety in phase I clinical trial” value in data set [3] was “did not reveal significant safety issues”. Besides, the “Levels of BUN vs vehicle” value is reported as “significantly lower” with NZB/W F1 female mice [4] (group CKD30, 40 weeks of age); “significantly lower” in the data set with NZB/W F1 female mice [4] (group CKD30, at autopsy); “significantly lower” in the data set on NZB/W F1 female mice [4] (group CKD50, 36 weeks of age); “significantly lower” with NZB/W F1 female mice [4] (group CKD50, 40 weeks of age); “significantly lower” in the data set on NZB/W F1 female mice [4] (group CKD50, at autopsy).
